Source: patent publication US20110300129A1, “SYSTEMS AND METHODS FOR ENHANCING VACCINE EFFICACY” (UNIVERSITY OF ROCHESTER, priority 2008, published 2011)

How the values were obtained:
[1] = tested on: purified human B lymphocytes; assay: Antibody production, IgM and IgG ELISA of B cell supernatants; assay type: cell-based
Method: Antibody Production: Purified human B lymphocytes (5×10^5 cells/ml) were cultured in 96-well round-bottom microtiter plates. […] Pilot experiments were performed to optimize the doses of PPARγ and RXR ligands. […] Supernatants were harvested and the concentrations of IgM and IgG were analyzed using human-specific ELISAs (Bethyl Laboratories).

[2] = tested on: peripheral blood B cells; assay: Plasma cell differentiation, CD38/CD27 surface labeling by flow cytometry; assay type: cell-based, human; conditions: for percentage of CD38highCD27high B cells (plasma cells): Rosiglitazone 0.5 μM, 15d-PGJ2 0.2 μM; for percentage of CD38highCD27high B cells (plasma cells) / percentage of CD38-expressing naive B cells (CD38highCD27low): 9-cis-RA 100 nM
Method: Intracellular and Surface Labeling: B cells were incubated with mouse anti-human CD19-APC (BD Biosciences), anti-human CD38-PE (BD Biosciences) and/or anti-human CD27-APC (BD Biosciences) in cold PBS with sodium azide (0.02%) and BSA (0.3%) for 20 min at 20° C. COX-2 intracellular staining was performed as described previously (Padilla et al., “Human B Lymphocytes and B Lymphomas Express PPAR-γ and Are Killed by PPAR-γ Agonists,” Clin Immunol 103:22-33 (2002), which is hereby incorporated by reference in its entirety). All samples were acquired on a BD Biosciences FACS Calibur flow cytometer and analyzed using FlowJo software (Tree Star, Inc. Ashland, Oreg.).
Peripheral-blood B lymphocytes include both naive and memory B cell populations. These two B cell subsets can be distinguished based on CD27 expression, which is a marker of memory B cells (Agematsu et al., “CD27: A Memory B-cell Marker,” Immunol Today 21:204-206 (2000), each of which is hereby incorporated by reference in its entirety).

[3] = tested on: BLIMP-1 expression in B cells; assay: BLIMP-1 expression in B cells, Western blot densitometry; assay type: cell-based, human; conditions: for BLIMP-1 induction over CpG-treated cells (densitometry): CpG 1 μg/ml plus ligand, 72 hrs
Method: (§1) Western Blots: Whole cell extracts were collected using ELB buffer (50 mM HEPES (pH 7), 250 mM NaCl, 0.1% Nonidet P-40, 5 mM EDTA, 10 mM NaF, 0.1 mM Na3VO4, 50 μM ZnCl2, supplemented with 0.1 mM PMSF, 1 mM DTT, and a mixture of protease and phosphatase inhibitors) and total protein was quantified using bicinchoninic acid protein assay (BCA assay kit) (Pierce, Rockford, Ill.). Twenty-five micrograms of protein was electrophoresed on 8-16% Precise™ protein gels (Pierce, Rockford, Ill.) and transferred to polyvinylidene fluoride (PVDF) membrane (Millipore, Billerica, Mass.). The membranes were analyzed for immunoreactivity with the indicated primary antibody, washed and then incubated with an appropriate horseradish peroxidase-conjugated secondary antibody. The membranes were visualized by chemiluminescence using an ECL kit (Pierce, Rockford, Ill.).
Lastly, BLIMP-1 expression was evaluated. BLIMP-1 is a transcription factor important in B cell differentiation (Shaffer et al., “Blimp-1 Orchestrates Plasma Cell Differentiation by Extinguishing the Mature B Cell Gene Expression Program,” Immunity 17:51-62 (2002), which is hereby incorporated by reference in its entirety). […] When B cells were treated with a combination of CpG and PPARγ ligands, there was a further increase in BLIMP-1 expression.

[4] = tested on: peripheral blood B cells; conditions: Morikawa et al. 2005; cited from earlier work
[5] = tested on: purified human B cells; assay: B cell proliferation, CFSE cell division by flow cytometry; assay type: cell-based; conditions: CpG-activated B cells, 5 days; for cell division compared to vehicle control: Rosiglitazone 0.5 μM, 15d-PGJ2 0.2 μM
Method: Proliferation: For cell division, a CellTrace™ CFSE Cell Proliferation Kit (Invitrogen, Carlsbad, Calif.) was used according to the manufacturer's protocol. Briefly, cells were labeled with 0.5 μM CFSE (carboxyfluorescein diacetate succinimidyl ester) for 15 minutes at 37° C., followed by two washes with 1×PBS, and then resuspended in RPMI culture media containing 10% FBS. Cells were then plated at a density of 1×10^5 cells/well in a 96-round bottom plate. Five days later, cells were acquired using a BD Biosciences FACS Calibur flow cytometer and analyzed using FlowJo software (Tree Star, Inc. Ashland, Oreg.).
Five days after activation, cells were analyzed by flow cytometry. […] FIG. 2B illustrates the percent of cell division for three different B cell donors.

[6] = tested on: Cox-2 expression in B cells; assay: Cox-2 intracellular staining of CD19+ B cells, flow cytometry; assay type: cell-based, human; conditions: for percentage of B cells which express Cox-2: CpG 1 μg/ml, Rosiglitazone 0.5 μM, 15d-PGJ2 0.2 μM, 3% untreated
Method: Intracellular and Surface Labeling: B cells were incubated with mouse anti-human CD19-APC (BD Biosciences), anti-human CD38-PE (BD Biosciences) and/or anti-human CD27-APC (BD Biosciences) in cold PBS with sodium azide (0.02%) and BSA (0.3%) for 20 min at 20° C. […] All samples were acquired on a BD Biosciences FACS Calibur flow cytometer and analyzed using FlowJo software (Tree Star, Inc. Ashland, Oreg.).
Therefore, the levels of Cox-2 expression were evaluated following PPARγ ligand treatment.

[7] = tested on: human B cells; assay: B cell viability (7-AAD incorporation, cell size, 3H-thymidine incorporation); assay type: cell-based; conditions: Rosiglitazone 0.5 μM, 15d-PGJ2 0.2 μM; pilot experiments
[8] = molecular target: T1, PPARγ (Homo sapiens, UniProt P37231); assay: PPARγ gene reporter analysis (PPRE-luciferase) in transfected B cells; assay type: cell-based
T1 construct: normal B cells were transfected with a PPARγ luciferase reporter construct; endogenous in cells
T1 sequence (P37231 1-505): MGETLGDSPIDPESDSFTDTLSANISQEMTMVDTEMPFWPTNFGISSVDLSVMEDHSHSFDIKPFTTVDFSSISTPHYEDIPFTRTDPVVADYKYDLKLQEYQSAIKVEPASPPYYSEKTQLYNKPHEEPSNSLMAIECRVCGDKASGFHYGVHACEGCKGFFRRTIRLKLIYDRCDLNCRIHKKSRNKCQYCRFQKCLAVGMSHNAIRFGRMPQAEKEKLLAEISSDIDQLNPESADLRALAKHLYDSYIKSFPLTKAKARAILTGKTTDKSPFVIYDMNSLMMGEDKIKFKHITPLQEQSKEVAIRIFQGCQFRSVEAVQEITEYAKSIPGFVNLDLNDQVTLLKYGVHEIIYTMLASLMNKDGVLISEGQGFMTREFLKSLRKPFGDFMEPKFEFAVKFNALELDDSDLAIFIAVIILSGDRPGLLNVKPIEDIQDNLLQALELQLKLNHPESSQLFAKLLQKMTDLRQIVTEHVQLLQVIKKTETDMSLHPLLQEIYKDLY
Method: Twenty-four hours after treatments, luciferase activity was assayed using the Promega Luciferase Assay System (Madison, Wis.). Relative light units (RLU) were determined with a Lumicount Microplate Luminometer (Packard Instrument Co., Meriden, Conn., USA). Relative light units (RLU) were normalized to transfection efficiency that was monitored by cotransfection of GFP expression vector.
To test whether the PPARγ ligand concentrations used here activated PPARγ, normal B cells were transfected with a PPARγ luciferase reporter construct.

[9] = tested on: PPARγ expression in human B cells; assay: Intracellular PPARγ staining of B cells, flow cytometry; assay type: cell-based; conditions: activated B cells
Method: For intracellular staining for PPARγ, untreated or activated B lymphocytes were surface stained with 20 μl of APC anti-human CD19 mAb (BD Biosciences) for 30 minutes in the dark at room temperature (RT). Cells were then fix and permeabilized with BD Cytofix/Cytoperm Fixation/Permeabilization Kit following the manufacturer's instructions. A FITC-Conjugated anti-human PPARγ antibody was used at a 1/100 dilution. An equal amount of IgG1 FITC mAb was used as an isotype control.

[10] = tested on: PPARγ expression in human B cells; assay: PPARγ expression in activated B cells, Western blot densitometry; assay type: cell-based; conditions: 48 hr; 2 μg/ml anti-IgM Ab, 1 μg/ml CpG; three donors; 'up to'
Description: B Cell Isolation: Normal B lymphocytes were isolated from a unit of whole blood from healthy donors with ethical permission from the Research Subjects Review Board at the University of Rochester. The isolation of normal B lymphocytes has been previously described (Ryan, et al., “Activated Human B Lymphocytes Express Cyclooxygenase-2 and Cyclooxygenase Inhibitors Attenuate Antibody Production,” J Immunol 174:2619-2626 (2005), which is hereby incorporated by reference in its entirety). Briefly, buffy coats were obtained from whole blood and peripheral blood mononuclear cells (PBMCs) were obtained using Ficoll-Paque (Amersham Biosciences AB) gradient centrifugation. […] B lymphocyte purity was >98% CD19 positive (as determined by flow cytometry, data not shown). […]
as §1, with “Twenty-five micrograms of protein was electrophoresed on 8-16% Precise™ protein gels (Pierce, Rockford, Ill.) and transferred to polyvinylidene fluoride (PVDF) membrane (Millipore, Billerica, Mass.).” left out, “The membranes were visualized by chemiluminescence using an ECL kit (Pierce, Rockford, Ill.).” left out

[11] = addition of SC-58125 10 μM, 6 days

With `O=C(Nc1ccccc1)c1cc([N+](=O)[O-])ccc1Cl` [GW9662] the “effects of PPARγ ligands on IgG production” value ([1]; with GW9662 500 nM, CpG, 6 days) was “abolished”, the “PPARγ ligand-induced CD38 expression in memory B cells” value ([2]; with GW9662 500 nM, CpG) was “attenuated” and the “expression of BLIMP-1 compared to CpG alone” value ([3]; CpG and GW9662 500 nM) was “decrease”. The “increase in BLIMP-1 by Rosiglitazone and 15d-PGJ2” value ([3]; CpG-activated B cells, with GW9662 500 nM) was “dramatically attenuated”.

For `CC1=C(/C=C/C(C)=C/C=C/C(C)=C/C(=O)O)C(C)(C)CCC1` [ATRA, all-trans-retinoic acid], the CD38 expression [4] is given as “induces CD38 expression” and the antibody production [4] is given as “increases antibody production”.

In the case of `CS(=O)(=O)c1ccc(-n2nc(C(F)(F)F)cc2-c2ccc(F)cc2)cc1` [SC-58125], the “IgG production of CpG-stimulated B cells” value [1, 11] is reported as “significantly reduced”, the “IgM production of CpG-stimulated B cells” value [1, 11] is reported as “significantly reduced” and the “increased antibody production upon PPARγ ligand treatment” value ([1]; addition of SC-58125 10 μM, CpG, 6 days) is reported as “significantly reduced”.

In the case of `CN(CCOc1ccc(CC2SC(=O)NC2=O)cc1)c1ccccn1` (centres unmarked) [Rosiglitazone, 5-[4-[2-[N-methyl-N-(2-pyridyl)amino]ethoxy]benzyl]thiazolidine-2,4-dione], the “cell division compared to vehicle control” value [5] is reported as “increased cell division”, the “percentage of CD38highCD27high B cells (plasma cells)” value (“percentage … (plasma cells)” for short) ([2]; CpG 1 μg/ml, 5 days) is reported as 10.7±1.6% and the “percentage of B cells which express Cox-2” value [6] is reported as 36%. The “BLIMP-1 induction over CpG-treated cells (densitometry)” value [3] was about 6 fold and the cell viability [7] was “did not adversely affect cell viability”.

In the case of `CCCCCC=CC=C1C(=O)C=C[C@@H]1CC=CCCCC(=O)O` [15d-PGJ2, 15-deoxy-Δ^12,14 Prostaglandin J2], the “cell division compared to vehicle control” value [5] is reported as “increased cell division”, the “luciferase activity (PPRE reporter)” value ([8]; CpG-activated B cells, 24 h treatment, Rosiglitazone 0.5 μM, 15d-PGJ2 0.2 μM) is reported as “increased luciferase activity” and the “CD38highCD27high cells, fold over vehicle” value ([2]; CpG 1 μg/ml, 5 days) is reported as about 2 fold. For the same compound, the “percentage … (plasma cells)” value ([2]; CpG 1 μg/ml, 5 days) was 12.5±1.4%, the “percentage of B cells which express Cox-2” value [6] was 43% and the “BLIMP-1 induction over CpG-treated cells (densitometry)” value [3] was about 9 fold. For the same compound, the cell viability [7] was “did not adversely affect cell viability”.

In the case of “CpG: CpG oligodeoxynucleotides 2395 5′-TCGTCGTTTTCGGCGCGCGCCG-3′ (SEQ ID NO: 1), a TLR-9 ligand, mitogen (chemistry not given here)”, the “PPARγ activity (PPRE reporter)” value ([8]; CpG-activated B cells with no exogenous PPARγ ligand) is reported as “did not induce PPARγ activity”, the IgG production ([1]; CpG 1 μg/ml alone, 5 days) is reported as “significantly induced” and the IgM production ([1]; CpG 1 μg/ml alone, 5 days) is reported as “significantly induced”. For the same compound, the “percentage of CD38-expressing naive B cells (CD38highCD27low)” value ([2]; CpG 1 μg/ml, 5 days) was 9.1±0.6%, the “percentage … (plasma cells)” value ([2]; CpG 1 μg/ml, 5 days) was 7.0±1.7% and the “percentage of B cells which express Cox-2” value [6] was 27%. For the same compound, the “levels of Cox-2 expression (mean fluorescence intensity)” value ([6]; FIG. 6B) was “increased the levels of Cox-2 expression”, the “intracellular PPARγ levels compared to untreated B cells” value [9] was “increased” and the “BLIMP-1 protein levels compared to untreated or freshly isolated B cells” value ([3]; CpG treatment) was “significantly upregulated”. The “PPARγ protein levels increase compared to untreated B cells (densitometry of Western blot)” value [10] was at most 14.3 fold.

In the case of `CC1=C(/C=C/C(C)=C\C=C\C(C)=C\C(=O)O)C(C)(C)CCC1` [9-cis-RA, 9-cis-retinoic acid], the “percentage of dividing cells” value ([5]; ligand alone, 9-cis-RA 100 nM) is reported as “increased the percentage of dividing cells”, the “IgG production over vehicle control” value ([1]; CpG-activated cells, 6 days) is reported as “significantly induced” and the “IgM production over vehicle control” value ([1]; CpG-activated cells, 6 days) is reported as “significantly induced”. For the same compound, the “CD38highCD27high cells, fold over vehicle” value ([2]; CpG 1 μg/ml, 5 days) was about 1.7 fold, the “CD38highCD27low cells, fold vs. CpG plus vehicle” value ([2]; CpG 1 μg/ml, 5 days) was about 3.5 fold and the “percentage of CD38-expressing naive B cells (CD38highCD27low)” value ([2]; CpG 1 μg/ml, 5 days) was 30.2±5.5%. For the same compound, the “percentage … (plasma cells)” value ([2]; CpG 1 μg/ml, 5 days) was 10.3±1.9%.
